The text below walks through data of patent US20050075393A1, “Carboxylic acid compound cyclopropane ring” (priority 2000, published 2005).

The experiment relates to hippocampal neurotransmission (PS amplitude, dentate granule cells, perforant path stimulation). As to the kind of experiment: Population spike (PS) recording in dentate gyrus of anesthetized mice (LTP-like potentiation of synaptic transmission). The class given is in vivo. The settings on record: mouse. From the text:
For population spike (PS) recording, the head of a mouse was fixed with ear bars under urethane anesthesia (an initial dose of 1.2 g/kg, i.p. followed by supplemental injections of 0.2-0.6 g/kg as needed), and a glass recording electrode was placed in the cell body layer of dentate granule cells (coordinates=2.0-2.5 mm posterior to bregma, 1.0-1.5 mm lateral to the midline, 1.5-2.0 mm ventral to the brain surface). Initial responses were obtained using cathodal stimulation (7.0-9.0 V, 0.1 Hz, 0.1 ms in duration) of the perforant path. After both stimulating and recording electrodes were properly positioned and population spike was obtained, the baseline was allowed to stabilize for 30 min prior to baseline recording. Body temperature was maintained at 37° C. Compound A was dissolved in 50% polyethylene glycol, diluted with water, and injected intraperitoneally (i.p.) at concentrations of 0.1 mg/kg, 1 mg/kg and 10 mg/kg, respectively. After the intraperitoneal administration of Compound A, the PS amplitude was measured every 5 minutes, and the proportion in percentage of the obtained value to the PS amplitude at the time of the start of i.p. administration of Compound A (% of basal PS amplitude) was calculated.

For the compound `CCCCCC1CC1CC1CC1CCCCCCCC(=O)O` (stereo not drawn) [Compound A, 8-(2-((2-pentylcyclopropan-1-yl)methyl)cyclopropyl)octanoic acid], the “time after injection at which potentiation of PS amplitude is still evident” value (1 mg/kg i.p.) is reported as not below 120 min. The “PS amplitude, percent of basal PS amplitude” value (1 mg/kg i.p., urethane anesthesia) is given as “approximately 200%”. The “potentiation of PS amplitude” value (10 mg/kg i.p., compared with 1 mg/kg) is “much lesser potentiation”.
